This note sets out measurements from patent publication US11634447B2 (priority 2012, dated 2023).

SMILES strings stand for the structures.

In this assay the test system is bacterial strain LF82 binding to the glycoprotein BSA-(Mannose)3. The assay is described as follows: Bacterial Binding Assay (BBA). Conditions: read-out: Bacterial Binding Assay IC50, LF82/Luciferase strain binding to BSA-(Man)3 coated plates, luminescence. The class given is cell-based, Escherichia coli. Put shortly:
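Inhibition of LF82/luciferase E. coli adhesion is read as luminescence after washing off unbound cells. Compound and bacteria (10^7 per well) are co-incubated 40-75 min at room temperature on wells coated with 0.5-2 μg/mL BSA-(Man)3, with BSA-only wells as background; IC50 values derived.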
As for `OC[C@H]1O[C@H](C#Cc2ccc3nc(C#C[C@H]4O[C@H](CO)[C@@H](O)[C@H](O)[C@@H]4O)ncc3c2)[C@@H](O)[C@@H](O)[C@@H]1O` [Compound 127, (2R,3S,4R,5S,6R)-2-(hydroxymethyl)-6-[2-[2-[2-[(2R,3S,4R,5S,6R)-3,4,5-trihydroxy-6-(hydroxymethyl)tetrahydropyran-2-yl]ethynyl]quinazolin-6-yl]ethynyl]tetrahydropyran-3,4,5-triol], the IC50 was determined as 43 nM.

In the case of `COc1c(C#C[C@H]2O[C@H](CO)[C@@H](O)[C@H](O)[C@@H]2O)ccc2c(OC)c(C#C[C@H]3O[C@H](CO)[C@@H](O)[C@H](O)[C@@H]3O)ccc12` [Compound 125, (2R,3S,4R,5S,6R)-2-[2-[1,5-dimethoxy-6-[2-[(2R,3S,4R,5S,6R)-3,4,5-trihydroxy-6-(hydroxymethyl)tetrahydropyran-2-yl]ethynyl]-2-naphthyl]ethynyl]-6-(hydroxymethyl)tetrahydropyran-3,4,5-triol], the IC50 came out at 54 nM.

Consider `CCCCc1cc(C#C[C@H]2O[C@H](CO)[C@@H](O)[C@H](O)[C@@H]2O)ccc1C#C[C@H]1O[C@H](CO)[C@@H](O)[C@H](O)[C@@H]1O` [Compound 72], for which the IC50 is 18 nM.

Take `OC[C@H]1O[C@H](C#Cc2ccc(C#C[C@H]3O[C@H](CO)[C@@H](O)[C@H](O)[C@@H]3O)s2)[C@@H](O)[C@@H](O)[C@@H]1O` [Compound 138]: the IC50 stood at 31 nM.

Take `COCc1cc(C#C[C@H]2O[C@H](CO)[C@@H](O)[C@H](O)[C@@H]2O)c(COC)cc1C#C[C@H]1O[C@H](CO)[C@@H](O)[C@H](O)[C@@H]1O` [Compound 89, (2R,3S,4R,5S,6R)-2-[2-[2,5-bis(methoxymethyl)-4-[2-[(2R,3S,4R,5S,6R)-3,4,5-trihydroxy-6-(hydroxymethyl)tetrahydropyran-2-yl]ethynyl]phenyl]ethynyl]-6-(hydroxymethyl)tetrahydropyran-3,4,5-triol]: the IC50 came to 82 nM.

On to `OC[C@H]1O[C@H](C#Cc2csc3c(C#C[C@H]4O[C@H](CO)[C@@H](O)[C@H](O)[C@@H]4O)csc23)[C@@H](O)[C@@H](O)[C@@H]1O` [Compound 132, (2R,3S,4R,5S,6R)-2-(hydroxymethyl)-6-[2-[6-[2-[(2R,3S,4R,5S,6R)-3,4,5-trihydroxy-6-(hydroxymethyl)tetrahydropyran-2-yl]ethynyl]thieno[3,2-b]thiophen-3-yl]ethynyl]tetrahydropyran-3,4,5-triol], for which the IC50 is 52 nM.

On to `Cn1c2cc(C#C[C@H]3O[C@H](CO)[C@@H](O)[C@H](O)[C@@H]3O)ccc2c2ccc(C#C[C@H]3O[C@H](CO)[C@@H](O)[C@H](O)[C@@H]3O)cc21` [Compound 112, (2R,3S,4R,5S,6R)-2-(hydroxymethyl)-6-[2-[9-methyl-7-[2-[(2R,3S,4R,5S,6R)-3,4,5-trihydroxy-6-(hydroxymethyl)tetrahydropyran-2-yl]ethynyl]carbazol-2-yl]ethynyl]tetrahydropyran-3,4,5-triol], for which the IC50 was 17 nM.

For `OC[C@H]1O[C@H](C#Cc2ccc3c(c2)C(F)(F)c2cc(C#C[C@H]4O[C@H](CO)[C@@H](O)[C@H](O)[C@@H]4O)ccc2-3)[C@@H](O)[C@@H](O)[C@@H]1O` [Compound 116, (2R,3S,4R,5S,6R)-2-[2-[9,9-difluoro-7-[2-[(2R,3S,4R,5S,6R)-3,4,5-trihydroxy-6-(hydroxymethyl)tetrahydropyran-2-yl]ethynyl]fluoren-2-yl]ethynyl]-6-(hydroxymethyl)tetrahydropyran-3,4,5-triol], the IC50 was 8.1 nM.

With `OC[C@H]1O[C@H](C#Cc2ccc(C#C[C@H]3O[C@H](CO)[C@@H](O)[C@H](O)[C@@H]3O)c3nsnc23)[C@@H](O)[C@@H](O)[C@@H]1O` [Compound 131, (2R,3S,4R,5S,6R)-2-(hydroxymethyl)-6-[2-[4-[2-[(2R,3S,4R,5S,6R)-3,4,5-trihydroxy-6-(hydroxymethyl)tetrahydropyran-2-yl]ethynyl]-2,1,3-benzothiadiazol-7-yl]ethynyl]tetrahydropyran-3,4,5-triol], the IC50 came to 128 nM.

In the case of `CCOC(=O)Cn1c2cc(C#C[C@H]3O[C@H](CO)[C@@H](O)[C@H](O)[C@@H]3O)ccc2c2ccc(C#C[C@H]3O[C@H](CO)[C@@H](O)[C@H](O)[C@@H]3O)cc21` [Compound 175, ethyl 2-[2,7-bis[2-[(2R,3S,4R,5S,6R)-3,4,5-trihydroxy-6-(hydroxymethyl)tetrahydropyran-2-yl]ethynyl]carbazol-9-yl]acetate], the IC50 was determined as 6.5 nM.

Turning to `OCc1cc(C#C[C@H]2O[C@H](CO)[C@@H](O)[C@H](O)[C@@H]2O)ccc1C#C[C@H]1O[C@H](CO)[C@@H](O)[C@H](O)[C@@H]1O` [Compound 95, (2R,3S,4R,5S,6R)-2-(hydroxymethyl)-6-[2-[3-(hydroxymethyl)-4-[2-[(2R,3S,4R,5S,6R)-3,4,5-trihydroxy-6-(hydroxymethyl)tetrahydropyran-2-yl]ethynyl]phenyl]ethynyl]tetrahydropyran-3,4,5-triol], the IC50 was 38 nM.

On to `OC[C@H]1O[C@H](C#Cc2ccc3[nH]c4ccc(C#C[C@H]5O[C@H](CO)[C@@H](O)[C@H](O)[C@@H]5O)cc4c3c2)[C@@H](O)[C@@H](O)[C@@H]1O` [Compound 108, (2R,3S,4R,5S,6R)-2-(hydroxymethyl)-6-[2-[6-[2-[(2R,3S,4R,5S,6R)-3,4,5-trihydroxy-6-(hydroxymethyl)tetrahydropyran-2-yl]ethynyl]-9H-carbazol-3-yl]ethynyl]tetrahydropyran-3,4,5-triol], for which the IC50 turned out to be 28 nM.

For the compound `OC[C@H]1O[C@H](c2ccc(C#C[C@H]3O[C@H](CO)[C@@H](O)[C@H](O)[C@@H]3O)cc2)[C@@H](O)[C@@H](O)[C@@H]1O` [Compound 141, (2R,3S,4R,5S,6R)-2-(hydroxymethyl)-6-[2-[4-[(2R,3S,4R,5S,6R)-3,4,5-trihydroxy-6-(hydroxymethyl)tetrahydropyran-2-yl]phenyl]ethynyl]tetrahydropyran-3,4,5-triol], the IC50 is 340 nM.

Regarding `OC[C@H]1O[C@H](C#Cc2ccc(C#C[C@H]3O[C@H](CO)[C@@H](O)[C@H](O)[C@@H]3O)c(OCc3ccccc3)c2)[C@@H](O)[C@@H](O)[C@@H]1O` [Compound 80, (2R,3S,4R,5S,6R)-2-[2-[3-benzyloxy-4-[2-[(2R,3S,4R,5S,6R)-3,4,5-trihydroxy-6-(hydroxymethyl)tetrahydropyran-2-yl]ethynyl]phenyl]ethynyl]-6-(hydroxymethyl)tetrahydropyran-3,4,5-triol], the IC50 is 11 nM.

With `CN(C)CCN(C)C1c2cc(C#C[C@H]3O[C@H](CO)[C@@H](O)[C@H](O)[C@@H]3O)ccc2-c2ccc(C#C[C@H]3O[C@H](CO)[C@@H](O)[C@H](O)[C@@H]3O)cc21` [Compound 213, (2R,3S,4R,5S,6R)-2-[2-[9-[2-(dimethylamino)ethyl-methyl-amino]-7-[2-[(2R,3S,4R,5S,6R)-3,4,5-trihydroxy-6-(hydroxymethyl)tetrahydropyran-2-yl]ethynyl]-9H-fluoren-2-yl]ethynyl]-6-(hydroxymethyl)tetrahydropyran-3,4,5-triol], the IC50 was found to be 3.7 nM.

With `OC[C@H]1O[C@H](C#Cc2ccc3c(c2)C(=NO)c2cc(C#C[C@H]4O[C@H](CO)[C@@H](O)[C@H](O)[C@@H]4O)ccc2-3)[C@@H](O)[C@@H](O)[C@@H]1O` [Compound 163, 2,7-bis[2-[(2R,3S,4R,5S,6R)-3,4,5-trihydroxy-6-(hydroxymethyl)tetrahydropyran-2-yl]ethynyl]fluoren-9-one oxime], the IC50 turned out to be 18 nM.
